Values of other authors as cited in patent US11827744B2, “Bottlebrush copolymers and uses thereof” (Massachusetts Institute of Technology, priority 2016, dated 2023).

Assays:
[1] = in vivo

For `CCc1c2c(nc3ccc(O)cc13)-c1cc3c(c(=O)n1C2)COC(=O)[C@]3(O)CC` [SN-38], the water solubility is given as “low water solubility” and the circulation life-times [1] is given as “short circulation life-times”.
